The values that follow come from ChEMBL document CHEMBL1157831, “Chemical epigenetics alters the secondary metabolite composition of guttate excreted by an atlantic-forest-soil-derived Penicillium citreonigrum” (2010).

In experiment [1] the test system is Escherichia coli. Kind of experiment: Antimicrobial activity against Escherichia coli ATCC 11775 at 15 ug in 6 mm disk after 10 hrs by disc-diffusion assay. Format: functional, organism-based.
A further experiment relates to Enterobacter cloacae. Kind of experiment: Antimicrobial activity against Enterobacter cloacae ATCC 13047 at 15 ug in 6 mm disk after 10 hrs by disc-diffusion assay. It counts as functional, organism-based. (Agar diffusion results depend on both activity and mobility in agar.)
For a further experiment, the system named is Klebsiella pneumoniae. Kind of experiment: Antimicrobial activity against Klebsiella pneumoniae ATCC 33495 at 15 ug in 6 mm disk after 10 hrs by disc-diffusion assay. Format: functional, organism-based.
Experiment [2] has as its system Staphylococcus aureus. Kind of experiment: Antimicrobial activity against Staphylococcus aureus ATCC 700787 at 15 ug in 6 mm disk after 10 hrs by disc-diffusion assay. Format: functional, organism-based.
The subject of experiment [3] is Staphylococcus epidermidis. The experiment is described as follows: Antimicrobial activity against Staphylococcus epidermidis ATCC 12228 at 15 ug in 6 mm disk after 10 hrs by disc-diffusion assay. Format: functional, organism-based.
The next experiment concerns Burkholderia cepacia. Kind of experiment: Antimicrobial activity against Burkholderia cepacia ATCC 25608 at 15 ug in 6 mm disk after 10 hrs by disc-diffusion assay. It counts as functional, organism-based.
A further experiment has as its system Pseudomonas aeruginosa. The experiment is described as follows: Antimicrobial activity against Pseudomonas aeruginosa ATCC 10145 at 15 ug in 6 mm disk after 10 hrs by disc-diffusion assay. Format: functional, organism-based.
The subject of the next experiment is Acinetobacter baumannii. Kind of experiment: Antimicrobial activity against Acinetobacter baumannii ATCC 19606 at 15 ug in 6 mm disk after 10 hrs by disc-diffusion assay. Format: functional, organism-based.
The subject of a further experiment is Nakaseomyces glabratus. Kind of experiment: Antifungal activity against Candida glabrata NRRL Y-65 at 15 ug in 6 mm disk after 10 hrs by disc-diffusion assay. To be noted: NRRL Y-65, 10 h, read-out: IZ. Format: functional.
The subject of experiment [4] is Candida tropicalis. Kind of experiment: Antifungal activity against Candida tropicalis ATCC 12968 at 15 ug in 6 mm disk after 10 hrs by disc-diffusion assay. Format: functional. To be noted: ATCC 12968, 10 h, read-out: IZ.
For experiment [5], the system named is Candida parapsilosis. The experiment is described as follows: Antifungal activity against Candida parapsilosis ATCC 12969 at 15 ug in 6 mm disk after 10 hrs by disc-diffusion assay. Format: functional. To be noted: Lodderomyces parapsilosis, ATCC 12969, 10 h; read-out: IZ.
The test system of experiment [6] is Candida albicans. Kind of experiment: Antifungal activity against Candida albicans ATCC 12983 at 15 ug in 6 mm disk after 10 hrs by disc-diffusion assay. Format: functional. To be noted: ATCC 12983, 10 h, read-out: IZ.
Experiment [7] relates to Pichia kudriavzevii. Kind of experiment: Antifungal activity against Candida krusei ATCC 27803 at 15 ug in 6 mm after 10 hrs by disc-diffusion assay. It counts as functional. To be noted: ATCC 27803, 10 h, read-out: IZ.
Experiment [8] has as its system Staphylococcus epidermidis. Kind of experiment: Antimicrobial activity against Staphylococcus epidermidis ATCC 12228 at 30 ug in 6 mm disk after 10 hrs by disc-diffusion assay. Format: functional. The settings on record: ATCC 12228, 10 h, read-out: IZ.
Experiment [9] deals with Candida albicans. Kind of experiment: Antifungal activity against Candida albicans ATCC 12983 at 30 ug in 6 mm disk after 10 hrs by disc-diffusion assay. It counts as functional. To be noted: ATCC 12983, 10 h, read-out: IZ.
The test system of experiment [10] is Candida tropicalis. Kind of experiment: Antifungal activity against Candida tropicalis ATCC 12968 at 30 ug in 6 mm disk after 10 hrs by disc-diffusion assay. To be noted: ATCC 12968, 10 h, read-out: IZ. It counts as functional.
The test system of experiment [11] is Pichia kudriavzevii. Kind of experiment: Antifungal activity against Candida krusei ATCC 27803 at 30 ug in 6 mm disk after 10 hrs by disc-diffusion assay. It counts as functional. The settings on record: ATCC 27803, 10 h, read-out: IZ.
The test system of experiment [12] is Candida parapsilosis. The experiment is described as follows: Antifungal activity against Candida parapsilosis ATCC 12969 at 30 ug in 6 mm disk after 10 hrs by disc-diffusion assay. Format: functional. The settings on record: Lodderomyces parapsilosis, ATCC 12969, 10 h; read-out: IZ.
The next experiment concerns Salmonella enterica. The experiment is described as follows: Antimicrobial activity against Salmonella typhimurium at 100 ug/disk after 10 hrs by disc-diffusion assay. Format: functional, Salmonella enterica subsp. enterica serovar Typhimurium. To be noted: read-out: IZ.
Experiment [13] deals with Escherichia coli. The experiment is described as follows: Antimicrobial activity against Escherichia coli at 100 ug/disk after 10 hrs by disc-diffusion assay. The settings on record: read-out: IZ. Format: functional.
In the next experiment the test system is Streptococcus pyogenes. Kind of experiment: Antimicrobial activity against Streptococcus pyogenes at 100 ug/disk after 10 hrs by disc-diffusion assay. It counts as functional. To be noted: read-out: IZ.
The subject of experiment [14] is Staphylococcus aureus. The experiment is described as follows: Antimicrobial activity against Staphylococcus aureus ATCC 700787 at 100 ug/disk after 10 hrs by disc-diffusion assay. It counts as functional. To be noted: ATCC 700787, 10 h, read-out: IZ.

Regarding GENTAMICIN, the inhibition zone (IZ) (with Escherichia coli [1]; in the experiment with Enterobacter cloacae; with Klebsiella pneumoniae; with Staphylococcus aureus [2]; in experiment [3]; in the experiment on Burkholderia cepacia) was 8 mm in each case. For the same compound, the inhibition zone (IZ) in the experiment with Pseudomonas aeruginosa and in the experiment with Acinetobacter baumannii was 8 mm in each case.

As for `CC(=O)N1CCN(c2ccc(OCC3COC(Cn4ccnc4)(c4ccc(Cl)cc4Cl)O3)cc2)CC1` (stereo not drawn) [KETOCONAZOLE], the zone of inhibition at 15 µg/disc in the experiment on Nakaseomyces glabratus, in the experiment with Candida tropicalis [4], in the experiment with Candida parapsilosis [5], in the experiment with Candida albicans [6] and with Pichia kudriavzevii [7] was 15 mm throughout.

`CC[C@H](C)/C=C(C)/C=C/C1=CC2=C(Cl)C(=O)[C@](C)(OC(C)=O)C(=O)C2=CO1` [SCLEROTIORIN]: in experiment [8], the zone of inhibition at 30 µg/disc worked out at 8 mm.

For the compound `CC[C@H](C)/C=C(C)/C=C/C1=CC2=C(Cl)C(=O)[C@](C)(OC(C)=O)C(=O)C2=CN1` [SCLEROTIORAMINE], the zone of inhibition at 30 µg/disc amounted to 8 mm in experiment [8]; 8 mm in the experiment on Candida albicans [9]; 8 mm in the experiment with Candida tropicalis [10]; 8 mm with Pichia kudriavzevii [11]; 7 mm in the experiment with Candida parapsilosis [12].

As for `C/C=C(/C(=O)O)N1C(=O)C=C(C)C1=O` [PENCOLIDE], the zone of inhibition at 100 µg/disc in the experiment with Salmonella enterica, in the experiment on Escherichia coli [13], in the experiment on Streptococcus pyogenes and with Staphylococcus aureus [14] was 13 mm throughout.
